From ChEMBL document CHEMBL5321208, “The effect of side chain variations on quinazoline-pyrimidine G-quadruplex DNA ligands” (Eur J Med Chem, 2023) come the findings set out here.

Activity calls are given as the source filed them. The rule behind the calls is not given here.

In data set [1] the test system is dsDNA. Nature of the data set: Binding affinity to double stranded DNA (unknown origin) assessed as thermal stabilization at 1 to 8 uM measured at 10 to 95 degreeC by FRET analysis. The data set is classed as nucleic-acid assay. As to conditions: dose 1-8 µM.
The subject of data set [2] is Quadruplex DNA. Put plainly: Binding affinity to FAM/TAMRA-labelled parallel KRAS G4 DNA (unknown origin) assessed as thermal stabilization in the presence of 15 equivalents of double stranded DNA by FRET competition assay. The data set is classed as nucleic-acid assay.
Data set [3] relates to Quadruplex DNA. Put plainly: Binding affinity to FAM/TAMRA-labelled parallel c-MYC Pu24T G4 DNA (unknown origin) assessed as thermal stabilization in the presence of 15 equivalents of double stranded DNA by FRET competition assay. The data set is classed as nucleic-acid assay.
The test system of data set [4] is Quadruplex DNA. Put plainly: Binding affinity to FAM/TAMRA-labelled c-KIT2 G4 DNA (unknown origin) assessed as thermal stabilization at 1 to 8 uM measured at 10 to 95 degreeC by FRET analysis. The data set is classed as nucleic-acid assay. As to conditions: dose 1-8 µM.
The test system of data set [5] is Quadruplex DNA. Put plainly: Binding affinity to FAM/TAMRA-labelled antiparallel Bom17 G4 DNA (unknown origin) assessed as thermal stabilization at 1 to 8 uM measured at 10 to 95 degreeC by FRET analysis. As to conditions: dose 1-8 µM. The data set is classed as nucleic-acid assay.
Data set [6] has as its system Quadruplex DNA. Nature of the data set: Binding affinity to FAM/TAMRA-labelled parallel c-MYC Pu24T G4 DNA (unknown origin) assessed as thermal stabilization at 1 to 8 uM measured at 10 to 95 degreeC by FRET analysis. As to conditions: dose 1-8 µM. The data set is classed as nucleic-acid assay.
Data set [7] relates to Quadruplex DNA. Nature of the data set: Binding affinity to FAM/TAMRA-labelled parallel KRAS G4 DNA (unknown origin) assessed as thermal stabilization by measuring change in melting temperature at 2 uM in the presence of 100 equivalents of double stranded DNA by FRET competition assay. The data set is classed as nucleic-acid assay.
The subject of data set [8] is Quadruplex DNA. Nature of the data set: Binding affinity to FAM/TAMRA-labelled antiparallel TBA G4 DNA (unknown origin) assessed as thermal stabilization at 1 to 8 uM measured at 10 to 95 degreeC by FRET analysis. The data set is classed as nucleic-acid assay. As to conditions: dose 1-8 µM.
Data set [9] concerns Quadruplex DNA. Put plainly: Binding affinity to FAM/TAMRA-labelled c-MYC Pu22 G4 DNA (unknown origin) assessed as thermal stabilization at 1 to 8 uM measured at 10 to 95 degreeC by FRET analysis. The data set is classed as nucleic-acid assay. As to conditions: dose 1-8 µM.
For data set [10], the system named is Quadruplex DNA. Nature of the data set: Binding affinity to FAM/TAMRA-labelled parallel c-MYC Pu24T G4 DNA (unknown origin) assessed as thermal stabilization by measuring change in melting temperature at 2 uM in the presence of 100 equivalents of double stranded DNA by FRET competition assay. It is filed as nucleic-acid assay.
The test system of data set [11] is Quadruplex DNA. Nature of the data set: Binding affinity to FAM/TAMRA-labelled parallel 25ceb G4 DNA (unknown origin) assessed as thermal stabilization at 1 to 8 uM measured at 10 to 95 degreeC by FRET analysis. As to conditions: dose 1-8 µM. It is filed as nucleic-acid assay.
Data set [12] has as its system Quadruplex DNA. Nature of the data set: Binding affinity to FAM/TAMRA-labelled c-KIT1 G4 DNA (unknown origin) assessed as thermal stabilization at 1 to 8 uM measured at 10 to 95 degreeC by FRET analysis. The data set is classed as nucleic-acid assay. As to conditions: dose 1-8 µM.
Data set [13] deals with Quadruplex DNA. Put plainly: Binding affinity to parallel c-MYC Pu24T G4 DNA (unknown origin) assessed as change in topology at 5 uM by CD spectra analysis. It is filed as nucleic-acid assay.
Data set [14] concerns Quadruplex DNA. Put plainly: Binding affinity to parallel c-MYC Pu24T G4 DNA (unknown origin) assessed as thermal stabilization by measuring change in melting temperature at 5 uM measured at 1:1 DNA to ligand ratio by CD spectra analysis. It is filed as nucleic-acid assay.
Data set [15] addresses Quadruplex DNA. Put plainly: Binding affinity to 5'-Cy5-labelled parallel c-MYC Pu24T G4 DNA (unknown origin) assessed as dissociation constant by MST analysis. It is filed as nucleic-acid assay.
In data set [16] the test system is Quadruplex DNA. Put plainly: Binding affinity to FAM/TAMRA-labelled 21g G4 DNA (unknown origin) assessed as thermal stabilization at 1 to 8 uM measured at 10 to 95 degreeC by FRET analysis. It is filed as nucleic-acid assay. As to conditions: dose 1-8 µM.
Data set [17] deals with Quadruplex DNA. Nature of the data set: Binding affinity to FAM/TAMRA-labelled parallel KRAS G4 DNA (unknown origin) assessed as thermal stabilization at 1 to 8 uM measured at 10 to 95 degreeC by FRET analysis. The data set is classed as nucleic-acid assay. As to conditions: dose 1-8 µM.
Data set [18] in a line: Antitumor activity against KPC mouse pancreatic cancer organoid expressing lentiviral modified GFP co-cultured with WT C57BL/6J mouse pancreatic stellate cells expressing mKate2 assessed as inhibition of cell growth incubated for 5 days by resazurin dye based fluorescence microscopic analysis. The data set is classed as functional, tissue-based. As to conditions: 120 h. For orientation: Alamar Blue is a resazurin reagent that responds to reducing activity.

Data set [19] in a line: Cytotoxicity against wildtype C57BL/6J mouse cancer activated fibroblast cells assessed as inhibition of cell growth incubated for 5 days by resazurin dye based fluorescence microscopic analysis. It is filed as toxicity.

Take `Cc1cc(NCCN2CCOCC2)nc(Nc2nc(C)c3ccc4c(c3n2)CCCC4)n1`: the result in data set [1] was inactive.
Regarding `Cc1cc(NCCCN2CCCC2)nc(Nc2nc(C)c3ccc4c(c3n2)CCCC4)n1`, the result in data set [2], in data set [3], in [4], in data set [6], in [9] and in data set [12] was Active. For the same molecule, the outcome in data set [16] was Active. The outcome in data set [5], in [8], in data set [1], in data set [11] and in data set [13] was inactive. The ΔTm in [7] was found to be 10 °C; in data set [10] it was 7 °C; in data set [14] it was 8 °C. For the same molecule, in data set [15], the Kd came to 0.245 µM.
In the case of `CCOC(=O)CCN1CCN(c2cc(C)nc(Nc3nc(C)c4ccc5c(c4n3)CCC5)n2)CC1`, the result in data set [6], in data set [1] and in [17] was inactive.
Regarding `CCN(CC)CCNc1cc(C)nc(Nc2nc(C)c3ccc4c(c3n2)CCCC4)n1`, the outcome in data set [6] was Active. Besides, in data set [1], the result was inactive.
For the molecule `CCOC(=O)CCN1CCN(c2cc(C)nc(Nc3nc(C)c4ccc5c(c4n3)CCCC5)n2)CC1`, the outcome in data set [6], in data set [1] and in data set [17] was inactive.
As for `Cc1cc(N2CCN(C(=O)OC(C)(C)C)CC2)nc(Nc2nc(C)c3ccc4c(c3n2)CCC4)n1`, the outcome in data set [6], in [1] and in data set [17] was inactive.
As to `CCN(CC)c1cc(C)nc(Nc2nc(C)c3ccc4c(c3n2)CCC4)n1`, the result in data set [1] was inactive.
For the molecule `Cc1cc(N2CCNCC2)nc(Nc2nc(C)c3ccc4c(c3n2)CCCC4)n1`, the result in data set [6] and in data set [17] was Active. Further, the result in [1] was inactive.
Turning to `Cc1cc(N2CCN(C)CC2)nc(Nc2nc(C)c3ccc4c(c3n2)CCCC4)n1`, in [6], the result was Active. For the same molecule, the result in data set [1] was inactive.
Take `CCN(CC)c1cc(C)nc(Nc2nc(C)c3ccc4c(c3n2)CCCC4)n1`: in [6], the result was Active. In [1], the outcome was inactive.
`Cc1cc(NCCCN2CCNCC2)nc(Nc2nc(C)c3ccc4c(c3n2)CCCC4)n1`: in [6], the outcome was Active. For the same molecule, the outcome in data set [1] was inactive.
As to `Cc1cc(NCCN2CCN(C)CC2)nc(Nc2nc(C)c3ccc4c(c3n2)CCC4)n1`, the result in data set [6] and in data set [17] was Active. In addition, the outcome in [1] was inactive. For the same molecule, the IC50 in data set [18] was 0.547 µM. The IC50 at 5 days in [19] is over 0.5 µM.
`CCN(CC)CCCCCNc1cc(C)nc(Nc2nc(C)c3ccc4c(c3n2)CCCC4)n1`: in [6], the outcome was Active.
As to `Cc1cc(NCCN2CCN(C)CC2)nc(Nc2nc(C)c3ccc4c(c3n2)CCCC4)n1`, the result in [6] and in data set [17] was Active. Also, the outcome in data set [1] was inactive.
As for `Cc1cc(N2CCOCC2)nc(Nc2nc(C)c3ccc4c(c3n2)CCC4)n1`, in data set [1], the result was inactive.
Still for that read-out and setting: in the case of `Cc1cc(NCCN2CCOCC2)nc(Nc2nc(C)c3ccc4c(c3n2)CCC4)n1` it was “inactive”.
Regarding `Cc1cc(N2CCOCC2)nc(Nc2nc(C)c3ccc4c(c3n2)CCCC4)n1`, the outcome in data set [1] was inactive.
As to `Cc1cc(NCCCN2CCN(C)CC2)nc(Nc2nc(C)c3ccc4c(c3n2)CCCC4)n1`, the result in data set [2], in [3], in [4], in [6], in [9] and in data set [12] was Active. Besides, in data set [16], the result was Active. Moreover, the result in [5], in data set [8], in data set [1], in [11] and in data set [13] was inactive. For the same molecule, the ΔTm in data set [7] amounted to 10 °C; in data set [10], 7 °C; in [14], 6 °C. The Kd in data set [15] turned out to be 0.28 µM.
For the molecule `CCN(CC)CCCNc1cc(C)nc(Nc2nc(C)c3ccc4c(c3n2)CCCC4)n1`, the outcome in data set [2], in data set [3], in [4], in [6], in data set [9] and in data set [12] was Active. Besides, in [16], the outcome was Active. Besides, the result in [5], in data set [8], in data set [1], in data set [11] and in data set [13] was inactive. Besides, the values for the ΔTm in data set [7], in data set [10] and in data set [14] were 10 °C, 7 °C and 7 °C, respectively. Also, the Kd in data set [15] is 0.23 µM.
Take `Cc1cc(N(C)C)nc(Nc2nc(C)c3ccc4c(c3n2)CCCC4)n1`: the outcome in [6] was Active. The result in data set [1] was inactive.
For `Cc1cc(NCCN2CCNCC2)nc(Nc2nc(C)c3ccc4c(c3n2)CCCC4)n1`, in data set [6], the result was Active. Also, the result in data set [1] was inactive.
As to `Cc1cc(NCCCN2CCCCC2)nc(Nc2nc(C)c3ccc4c(c3n2)CCCC4)n1`, the result in data set [2], in data set [3], in data set [4], in data set [6], in [9] and in [12] was Active. The outcome in data set [16] was Active. In addition, the outcome in data set [5], in data set [8], in data set [1], in data set [11] and in data set [13] was inactive. In addition, the ΔTm in data set [7] turned out to be 10 °C; in data set [10], 7 °C; in data set [14], 5 °C. Besides, in [15], the Kd is 0.175 µM.
On to `Cc1cc(N2CCN(c3ncccn3)CC2)nc(Nc2nc(C)c3ccc4c(c3n2)CCCC4)n1`, for which the outcome in data set [6], in data set [1] and in [17] was inactive.
For `Cc1cc(N2CCN(c3ncccn3)CC2)nc(Nc2nc(C)c3ccc4c(c3n2)CCC4)n1`, the outcome in [6], in data set [1] and in data set [17] was inactive.
For the molecule `Cc1cc(N2CCNCC2)nc(Nc2nc(C)c3ccc4c(c3n2)CCC4)n1`, the outcome in [6] and in data set [17] was Active. In data set [1], the result was inactive.
With `Cc1cc(NCCCN)nc(Nc2nc(C)c3ccc4c(c3n2)CCCC4)n1`, the result in data set [6] was Active. In addition, the outcome in data set [1] was inactive.
As to `Cc1cc(N2CCN(C(=O)OC(C)(C)C)CC2)nc(Nc2nc(C)c3ccc4c(c3n2)CCCC4)n1`, the result in [6], in data set [1] and in data set [17] was inactive.

In general, ΔTm refers to the shift of the melting midpoint relative to a reference. For orientation: Kd means a measure of binding affinity in units of concentration. In general, IC50 refers to the concentration needed to halve the response being measured.
